Experimental data from patent publication US20230183193A1, “4-DIFLUOROMETHYL BENZOYL AMIDES WITH HERBICIDAL ACTION” (BAYER CROPSCIENCE AKTIENGESELLSCHAFT, priority 2017, published 2023).

Key:
Assay type in all cases: in vivo
[1] = system: Abutilon theophrasti; assay: Post-emergence herbicidal action, ABUTH; details: 80 g/ha, Table D
Procedure, shortened: (§1)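 Visual percent activity relative to untreated controls, assessed about 3 weeks after foliar treatment, where 0% equals control growth and 100% equals death. Compounds, as wettable powders or emulsion concentrates, are sprayed onto one-leaf-stage plants in sandy loam.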

[2] = system: Amaranthus retroflexus; assay: Pre-emergence herbicidal action, AMARE; details: dosage 320 g/ha, scored visually after 3 weeks vs untreated controls
Procedure, shortened: (§2)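 Weed seeds were laid out in sandy loam and covered with soil, then the soil surface was treated with an aqueous suspension or emulsion of the formulated compound containing 0.2% wetting agent. Pots stayed in the greenhouse for 3 weeks before damage was rated visually against untreated plants.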

[3] = system: Alopecurus myosuroides; assay: Post-emergence herbicidal action, ALOMY; details: 80 g/ha, Table C
Procedure, shortened: as §1

[4] = system: ECHCG; assay: Post-emergence herbicidal action, ECHCG; details: 80 g/ha, Table C
Procedure, shortened: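 Weed and crop plants grown in sandy loam in the greenhouse, treated at the one-leaf stage 2–3 weeks after sowing. Damage scored visually after about 3 weeks vs untreated controls (0% = control, 100% = dead).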

[5] = system: Cyperus serotinus; assay: Pre-emergence herbicidal action, CYPES; details: dosage 320 g/ha, scored visually after 3 weeks vs untreated controls
Procedure, shortened: as §2

[6] = system: Viola tricolor; assay: Post-emergence herbicidal action, VIOTR; details: 80 g/ha, Table D
Procedure, shortened: as §1

[7] = system: Setaria viridis; assay: Post-emergence herbicidal action, SETVI; details: 80 g/ha, Table C
Procedure, shortened: as §1

[8] = system: Stellaria media; assay: Post-emergence herbicidal action, STEME; details: 80 g/ha, Table D
Procedure, shortened: as §1

[9] = system: Amaranthus retroflexus; assay: Post-emergence herbicidal action, AMARE; details: 80 g/ha, Table D
Procedure, shortened: as §1

[10] = system: Viola tricolor; assay: Pre-emergence herbicidal action, VIOTR; details: dosage 320 g/ha, scored visually after 3 weeks vs untreated controls
Procedure, shortened: as §2

[11] = system: Avena fatua; assay: Post-emergence herbicidal action, AVEFA; details: 80 g/ha, Table C
Procedure, shortened: as §1

[12] = system: Avena fatua; assay: Pre-emergence herbicidal action, AVEFA; details: dosage 320 g/ha, scored visually after 3 weeks vs untreated controls
Procedure, shortened: as §2

[13] = system: Alopecurus myosuroides; assay: Pre-emergence herbicidal action, ALOMY; details: dosage 320 g/ha, scored visually after 3 weeks vs untreated controls
Procedure, shortened: as §2

[14] = system: Matricaria inodora; assay: Pre-emergence herbicidal action, MATIN; details: dosage 320 g/ha, scored visually after 3 weeks vs untreated controls
Procedure, shortened: as §2

[15] = system: Pharbitis purpureum; assay: Post-emergence herbicidal action, PHBPU; details: 80 g/ha, Table D
Procedure, shortened: as §1

[16] = system: Setaria viridis; assay: Pre-emergence herbicidal action, SETVI; details: dosage 320 g/ha, scored visually after 3 weeks vs untreated controls
Procedure, shortened: as §2

[17] = system: Stellaria media; assay: Pre-emergence herbicidal action, STEME; details: dosage 320 g/ha, scored visually after 3 weeks vs untreated controls
Procedure, shortened: as §2

[18] = system: Abutilon theophrasti; assay: Pre-emergence herbicidal action, ABUTH; details: dosage 320 g/ha, scored visually after 3 weeks vs untreated controls
Procedure, shortened: as §2

SMILES | herbicidal activity ABUTH [1] [%] | herbicidal activity AMARE [2] [%] | herbicidal activity ALOMY [3] [%] | Herbicidal activity ECHCG [4] [%] | herbicidal activity CYPES [5] [%] | herbicidal activity VIOTR [6] [%] | herbicidal activity SETVI [7] [%] | Herbicidal activity STEME [8] [%] | herbicidal activity AMARE [9] [%] | herbicidal activity VIOTR [10] [%] | herbicidal activity AVEFA [11] [%] | herbicidal activity AVEFA [12] [%] | herbicidal activity ALOMY [13] [%] | herbicidal activity MATIN [14] [%] | Herbicidal activity PHBPU [15] [%] | herbicidal activity SETVI [16] [%] | Herbicidal activity STEME [17] [%] | herbicidal activity ABUTH [18] [%]
CCc1c(C(=O)Nc2nnnn2C)ccc(C(F)F)c1S(C)(=O)=O [Example 1-15] | 90 | 100 | 90 | 90 | 100 | 100 | 80 | 100 | 100 | 100 | 100 | 100 | 100 | 100 | 90 | 100 | 100 | 100
CCc1c(C(=O)Nc2nnnn2C)ccc(C(F)F)c1[S+]([O-])CC (stereo not drawn) [Example 1-17] | 100 | 100 | 90 | 90 | 100 | 100 | 90 | 100 | 100 | 100 | 90 | 100 | 100 | 100 | 90 | 100 | 100 | 100
CCc1c(C(=O)Nc2nnnn2C)ccc(C(F)F)c1S(=O)(=O)CC [Example 1-18] | 100 | 100 | 90 | 90 | 100 | 100 | 100 | 100 | 100 | 100 | 100 | 100 | 100 | 100 | 90 | 100 | 100 | 100
CSc1c(C(F)F)ccc(C(=O)Nc2nnnn2C)c1C1CC1 [Example 1-25] | 100 | 100 | 100 | 100 | 100 | 100 | 100 | 100 | 100 | 100 | 100 | 100 | 100 | 100 | 100 | 100 | 100 | 100
Cn1nnnc1NC(=O)c1ccc(C(F)F)c([S+](C)[O-])c1C1CC1 (stereo not drawn) [Example 1-26] | 100 | 100 | 90 | 100 | 100 | 100 | 100 | 100 | 100 | 100 | 100 | 100 | 100 | 100 | 90 | 100 | 100 | 100
Cn1nnnc1NC(=O)c1ccc(C(F)F)c(S(C)(=O)=O)c1C1CC1 [Example 1-27] | 100 | 100 | 100 | 100 | 100 | 100 | 100 | 100 | 100 | 100 | 100 | 100 | 100 | 100 | 90 | 100 | 100 | 100
CCSc1c(C(F)F)ccc(C(=O)Nc2nnnn2C)c1C1CC1 [Example 1-28] | 100 | 100 | 90 | 100 | 100 | 100 | 100 | 100 | 100 | 100 | 100 | 100 | 100 | 100 | 100 | 100 | 100 | 100
CC[S+]([O-])c1c(C(F)F)ccc(C(=O)Nc2nnnn2C)c1C1CC1 (stereo not drawn) [Example 1-29] | 100 | 100 | 100 | 100 | 100 | 100 | 100 | 100 | 100 | 100 | 90 | 100 | 100 | 100 | 100 | 100 | 100 | 100
CCS(=O)(=O)c1c(C(F)F)ccc(C(=O)Nc2nnnn2C)c1C1CC1 [Example 1-30] | 100 | 100 | 100 | 100 | 90 | 100 | 100 | 100 | 90 | 100 | 100 | 100 | 100 | 100 | 90 | 100 | 100 | 100
CSc1c(C(F)F)ccc(C(=O)Nc2nnnn2C)c1F [Example 1-37] | 90 | 100 | 80 | 100 | 100 | 100 | 100 | 100 | 100 | 100 | 100 | 100 | 100 | 100 | 90 | 100 | 100 | 100
Cn1nnnc1NC(=O)c1ccc(C(F)F)c([S+](C)[O-])c1F (stereo not drawn) [Example 1-38] | 100 | 100 | 90 | 100 | 90 | 100 | 100 | 100 | 90 | 100 | 90 | 100 | 100 | 100 | 90 | 100 | 100 | 100
